The text below walks through data of patent US20210292347A1, “DIHETEROCYCLIC TRIAZINONE NUCLEOSIDE ANALOGS AND THEIR USE FOR MEDICATION” (priority 2020, published 2021).

For the assay, the system named is mice sarcoma S180. Put plainly: Growth inhibition of S180 sarcoma in mice. Format: in vivo, Kunming healthy mice. The conditions noted are these: for in-vivo anti-tumor efficacy, statistical significance (in words): S180 sarcoma in mice, doses and routes of Table 3.
The mark [1] stands for this setting: Mus musculus, S-180, mice, ip, read-out: Inhibition rate (%) S180 sarcoma.
Setting [2] is: Mus musculus, S-180, mice, iv, read-out: Inhibition rate (%) S180 sarcoma.
The mark [3] stands for this setting: Mus musculus, S-180, mice, ip, 400 mg/kg, read-out: Inhibition rate (%) S180 sarcoma.

SMILES strings stand for the structures. Where only a bound is given, the exact number is not on record here.

Turning to `NC(=O)n1nc(N)c2nnn(C3OC(CO)C(O)C3O)c(=O)c21` (stereo not shown) [Example 56, 7-amino-3-(3,4-dihydroxy-5-(hydroxymethyl)tetrahydrofuran-2-yl)-4-oxo-3H-pyrazolo[4,3-d][1,2,3]triazine-5(4H)-carboxamide], the “in-vivo anti-tumor efficacy, statistical significance (in words)” value is “statistically significant”. For the same compound, the inhibition in vivo at 100 mg/kg under setting [1] is below 40%.

As to `N#Cc1nn(C(N)=O)c2c(=O)n(C3OC(CO)C(O)C3O)nnc12` (stereo not shown) [Example 58, 7-cyano-3-(3,4-dihydroxy-5-(hydroxymethyl)tetrahydrofuran-2-yl)-4-oxo-3H-pyrazolo[4,3-d][1,2,3]triazine-5(4H)-carboxamide], the “in-vivo anti-tumor efficacy, statistical significance (in words)” value was “statistically significant”. For the same compound, the inhibition in vivo at 100 mg/kg under setting [1] was below 40%.

With `NC(=O)n1nc(N2CCCCC2)c2nnn(C3OC(CO)C(O)C3O)c(=O)c21` (stereo not shown) [Example 59, 3-(3,4-dihydroxy-5-(hydroxymethyl)tetrahydrofuran-2-yl)-4-oxo-7-(piperidin-1-yl)-3H-pyrazolo[4,3-d][1,2,3]triazine-5(4H)-carboxamide], the inhibition in vivo at 50 mg/kg (Mus musculus, S-180, mice, iv, 50 mg/kg, read-out: Inhibition rate (%) S180 sarcoma) is below 20%.

For the compound `NC(=O)n1nc([N+](=O)[O-])c2nnn(C3OC(CO)C(O)C3O)c(=O)c21` (stereo not shown) [Example 60, 3-(3,4-dihydroxy-5-(hydroxymethyl)tetrahydrofuran-2-yl)-7-nitro-4-oxo-3H-pyrazolo[4,3-d][1,2,3]triazine-5(4H)-carboxamide], the “in-vivo anti-tumor efficacy, statistical significance (in words)” value was “statistically significant”. In addition, the inhibition in vivo at 15 mg/kg (Mus musculus, S-180, mice, iv, 15 mg/kg, read-out: Inhibition rate (%) S180 sarcoma) is below 40%.

In the case of `COc1ccc(C(=O)Nc2nn(C(N)=O)c3c(=O)n(C4OC(CO)C(O)C4O)nnc23)cc1` (stereo not shown) [Example 61, 3-(3,4-dihydroxy-5-(hydroxymethyl)tetrahydrofuran-2-yl)-7-(4-methoxybenzamido)-4-oxo-3H-pyrazolo[4,3-d][1,2,3]triazine-5(4H)-carboxamide], the inhibition in vivo at 12.5 mg/kg (Mus musculus, S-180, mice, iv, 12.5 mg/kg, read-out: Inhibition rate (%) S180 sarcoma) is below 20%.

Take `CCCc1nn(C(=N)N)c2c(=O)n(C3OC(CO)C(O)C3O)nnc12` (stereo not shown) [Example 68, 3-(3,4-dihydroxy-5-(hydroxymethyl)tetrahydrofuran-2-yl)-4-oxo-7-propyl-3H-pyrazolo [4,3-d][1,2,3]triazine-5(4H)-carboximidamide]: the “in-vivo anti-tumor efficacy, statistical significance (in words)” value was “statistically significant”. Besides, under setting [2], the inhibition in vivo at 20 mg/kg is below 40%.

With `N#Cc1nn(C(=N)N)c2c(=O)n(C3OC(CO)C(O)C3O)nnc12` (stereo not shown) [Example 70, 7-cyano-3-(3,4-dihydroxy-5-(hydroxymethyl)tetrahydrofuran-2-yl)-4-oxo-3H-pyrazolo[4,3-d][1,2,3]triazine-5(4H)-carboximidamide], the “in-vivo anti-tumor efficacy, statistical significance (in words)” value was “statistically significant”. Moreover, the inhibition in vivo at 100 mg/kg under setting [1] was below 40%.

As for `N=C(N)n1nc([N+](=O)[O-])c2nnn(C3OC(CO)C(O)C3O)c(=O)c21` (stereo not shown) [Example 72, 3-(3,4-dihydroxy-5-(hydroxymethyl)tetrahydrofuran-2-yl)-7-nitro-4-oxo-3H-pyrazolo[4,3-d][1,2,3]triazine-5(4H)-carboximidamide], the “in-vivo anti-tumor efficacy, statistical significance (in words)” value is “statistically significant”. In addition, the inhibition in vivo at 25 mg/kg (Mus musculus, S-180, mice, iv, 25 mg/kg, read-out: Inhibition rate (%) S180 sarcoma) was below 40%.

With `CCOC(=O)c1nn(C(N)=S)c2c(=O)n(C3OC(CO)C(O)C3O)nnc12` (stereo not shown) [Example 73, ethyl 5-carbamothioyl-3-(3,4-dihydroxy-5-(hydroxymethyl)tetrahydrofuran-2-yl)-4-oxo-4,5-dihydro-3H-pyrazolo[4,3-d][1,2,3]triazine-7-carboxylate], the “in-vivo anti-tumor efficacy, statistical significance (in words)” value is “statistically significant”. The inhibition in vivo at 200 mg/kg under setting [1] is below 40%.

Turning to `CCCc1nn(C(N)=S)c2c(=O)n(C3OC(CO)C(O)C3O)nnc12` (stereo not shown) [Example 74, 3-(3,4-dihydroxy-5-(hydroxymethyl)tetrahydrofuran-2-yl)-4-oxo-7-propyl-3H-pyrazolo[4,3-d][1,2,3]triazine-5(4H)-carbothioamide], the “in-vivo anti-tumor efficacy, statistical significance (in words)” value is “statistically significant”. Besides, the inhibition in vivo at 200 mg/kg under setting [1] was below 40%.

For `CN(C)CCC(=O)Nc1nn(C(N)=S)c2c(=O)n(C3OC(CO)C(O)C3O)nnc12` (stereo not shown) [Example 76, N-(5-carbamothioyl-3-(3,4-dihydroxy-5-(hydroxymethyl)tetrahydrofuran-2-yl)-4-oxo-4,5-dihydro-3H-pyrazolo[4,3-d][1,2,3]triazin-7-yl)-3-(dimethylamino) propanamide], the “in-vivo anti-tumor efficacy, statistical significance (in words)” value is “statistically significant”. In addition, the “Inhibition rate (%) S180 sarcoma” value (mice, ip, 400 mg/kg) is “++ (++ represent of Inhibition rate % <40)”.

Turning to `N#Cc1nn(C(N)=S)c2c(=O)n(C3OC(CO)C(O)C3O)nnc12` (stereo not shown) [Example 77, 7-cyano-3-(3,4-dihydroxy-5-(hydroxymethyl)tetrahydrofuran-2-yl)-4-oxo-3H-pyrazolo[4,3-d][1,2,3]triazine-5(4H)-carbothioamide], the “in-vivo anti-tumor efficacy, statistical significance (in words)” value is given as “statistically significant”. Moreover, under setting [1], the inhibition in vivo at 100 mg/kg was below 40%.

Turning to `CCCc1nn(O)c2c(=O)n(C3CCC(CO)O3)nnc12` (stereo not shown) [Example 79, 5-hydroxy-3-(5-(hydroxymethyl)tetrahydrofuran-2-yl)-7-propyl-3H-pyrazolo[4,3-d][1,2,3]triazin-4(5H)-one], under “Mus musculus, S-180, mice, ip, 300 mg/kg, read-out: Inhibition rate (%) S180 sarcoma”, the inhibition in vivo at 300 mg/kg is below 20%.

Consider `CCCc1nn(C)c2c(=O)n(C3CCC(CO)O3)nnc12` (stereo not shown) [Example 80, 3-(5-(hydroxymethyl)tetrahydrofuran-2-yl)-5-methyl-7-propyl-3H-pyrazolo[4,3-d][1,2,3]triazin-4(5H)-one], for which, under setting [1], the inhibition in vivo at 200 mg/kg was below 20%.

Turning to `CCOP(=O)(OCC)C(Nc1nn(CO)c2c(=O)n(C3CCC(CO)O3)nnc12)C(=O)O` (stereo not shown) [Example 81, 2-(diethoxyphosphoryl)-2-((5-(hydroxymethyl)-3-(5-(hydroxymethyl)tetrahydrofuran-2-yl)-4-oxo-4,5-dihydro-3H-pyrazolo[4,3-d][1,2,3]triazin-7-yl)amino)acetic acid], the “in-vivo anti-tumor efficacy, statistical significance (in words)” value is “statistically significant”. Also, under setting [1], the inhibition in vivo at 100 mg/kg was below 40%.

As for `CCOP(=O)(OCC)C(C(=O)O)n1nc(N)c2nnn(C3CCC(CO)O3)c(=O)c21` (stereo not shown) [Example 83, 2-(7-amino-3-(5-(hydroxymethyl)tetrahydrofuran-2-yl)-4-oxo-3H-pyrazolo[4,3-d][1,2,3]triazin-5(4H)-yl)-2-(diethoxyphosphoryl)acetic acid], the inhibition in vivo at 20 mg/kg under setting [2] was below 20%.

As to `CCCc1nn(C(=N)N)c2c(=O)n(C3CCC(CO)O3)nnc12` (stereo not shown) [Example 85, 3-(5-(hydroxymethyl)tetrahydrofuran-2-yl)-4-oxo-7-propyl-3H-pyrazolo[4,3-d][1,2,3]triazine-5(4H)-carboximidamide], under setting [3], the inhibition in vivo at 400 mg/kg was below 20%.

Regarding `CCCc1nn(C(N)=S)c2c(=O)n(C3CCC(CO)O3)nnc12` (stereo not shown) [Example 86, 3-(5-(hydroxymethyl)tetrahydrofuran-2-yl)-4-oxo-7-propyl-3H-pyrazolo[4,3-d][1,2,3]triazine-5(4H)-carbothioamide], the inhibition in vivo at 200 mg/kg under setting [1] was below 20%.

`CCCc1nn(O)c2c(=O)n(C3CSC(CO)O3)nnc12` (stereo not shown) [Example 88, 5-hydroxy-3-(2-(hydroxymethyl)-1,3-oxathiolan-5-yl)-7-propyl-3H-pyrazolo[4,3-d][1,2,3]triazin-4(5H)-one]: the “in-vivo anti-tumor efficacy, statistical significance (in words)” value is “statistically significant”. The inhibition in vivo at 400 mg/kg under setting [3] is below 40%.
